Like-named read-outs stand apart in the source and are kept apart here.
What was measured:
[1] = test system: CL 5701 (Pseudomonas aeruginosa; Pa AmpC); test: Synergy assay (checkerboard) with imipenem against P. aeruginosa strain CL5701; type: cell-based; settings: for 2X Synergy CL5701: BLI concentration reducing the MIC of imipenem by a factor of 2, P. aeruginosa strain CL5701; for 4X Synergy CL5701: BLI concentration reducing the MIC of imipenem by a factor of 4, P. aeruginosa strain CL5701; for 8X Synergy CL5701: BLI concentration reducing the MIC of imipenem by a factor of 8, P. aeruginosa strain CL5701
KPC-2 (K. pneumoniae) = KPC-2 (K. pneumoniae) (Klebsiella pneumoniae, UniProt Q9F663); test: biochemical
Chain of KPC-2 (K. pneumoniae) (Q9F663 25-293 limits assumed): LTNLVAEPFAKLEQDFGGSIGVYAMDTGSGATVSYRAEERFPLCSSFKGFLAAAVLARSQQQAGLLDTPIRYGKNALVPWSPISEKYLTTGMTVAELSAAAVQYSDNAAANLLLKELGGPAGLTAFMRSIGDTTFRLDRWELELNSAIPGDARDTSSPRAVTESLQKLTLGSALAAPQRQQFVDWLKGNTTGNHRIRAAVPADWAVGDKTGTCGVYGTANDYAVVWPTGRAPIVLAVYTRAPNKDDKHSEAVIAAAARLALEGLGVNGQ

[2] = test system: CL 6569 (Klebsiella pneumoniae; KPC-2); test: Synergy assay (checkerboard) with imipenem against K. pneumoniae strain CL6569; settings: for 16X Synergy CL6569: BLI concentration reducing the MIC of imipenem by a factor of 16, K. pneumoniae strain CL6569; for 32X Synergy CL6569: BLI concentration reducing the MIC of imipenem by a factor of 32, K. pneumoniae strain CL6569; for 64X Synergy CL6569: BLI concentration reducing the MIC of imipenem by a factor of 64, K. pneumoniae strain CL6569
Excerpt: The assay determines the concentration of a β-lactamase inhibitor required to reduce the MIC of a β-lactam antibiotic by one-half, one-quarter, one-eighth, one-sixteenth and one-thirty-second against strains of bacteria normally resistant to the antibiotic in question. This is accomplished by titrating the BLI in a serial dilution across a microtiter plate while at the same time titrating the antibiotic in a serial dilution down the microtiter plate and then inoculating the plate with the bacterial strain in question and allowing the bacteria to grow up overnight. Each well in this microplate checkerboard contains a different combination of concentrations of the inhibitor and the antibiotic allowing a full determination of any synergy between the two.
Plates are left at 37° C. for about 20 hours and scored for growth by eye.
Synergy may be expressed as a ratio of the minimum inhibitory concentration (MIC) of an antibiotic tested in the absence of a β-lactamase inhibitor to the MIC of the same antibiotic tested in the presence of the β-lactamase inhibitor. […] Alternatively, the synergy effect may be expressed as a factor, again, utilizing a concentration of the BLI to lower the MIC of the antibiotic.

AmpC (P. aeruginosa) = AmpC (P. aeruginosa) (Pseudomonas aeruginosa (strain ATCC 15692 / DSM 22644 / CIP 104116 / JCM 14847 / LMG 12228 / 1C / PRS 101 / PAO1), UniProt P24735); test: biochemical
Chain of AmpC (P. aeruginosa) (P24735 27-397): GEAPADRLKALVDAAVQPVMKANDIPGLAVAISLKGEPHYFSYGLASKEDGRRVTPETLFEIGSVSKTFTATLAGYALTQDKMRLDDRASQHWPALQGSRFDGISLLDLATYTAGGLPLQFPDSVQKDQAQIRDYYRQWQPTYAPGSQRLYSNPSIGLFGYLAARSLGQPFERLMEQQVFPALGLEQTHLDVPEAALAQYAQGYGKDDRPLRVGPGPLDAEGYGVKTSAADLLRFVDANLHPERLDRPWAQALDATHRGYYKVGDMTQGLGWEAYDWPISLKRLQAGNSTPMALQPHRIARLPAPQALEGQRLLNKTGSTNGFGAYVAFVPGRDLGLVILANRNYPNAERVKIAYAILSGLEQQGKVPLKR

[3] = Table 2, read-out: K.p. KPC-2 IC50
[4] = Table 2, read-out: P.a. AmpC IC50
[5] = Table 3, read-out: K.p. KPC-2 IC50
[6] = Table 3, read-out: P.a. AmpC IC50

Structure (SMILES)	2X Synergy CL5701 [1]	4X Synergy CL5701 [1]	8X Synergy CL5701 [1]	IC50 (KPC-2 (K. pneumoniae); [3]) [nM]	16X Synergy CL6569 [2] [µM]	32X Synergy CL6569 [2] [µM]	64X Synergy CL6569 [2] [µM]	IC50 (AmpC (P. aeruginosa); [4]) [nM]	IC50 (KPC-2 (K. pneumoniae); [5]) [nM]	IC50 (AmpC (P. aeruginosa); [6]) [nM]	IC50 (AmpC (P. aeruginosa)) [nM]	IC50 (KPC-2 (K. pneumoniae); K.p. KPC-2 IC50, Table 2) [nM]
NCc1ccc(NC(=O)[C@@H]2CC[C@@H]3CN2C(=O)N3OS(=O)(=O)O)cc1 [Example 9, (2S,5R)—N-[4-(aminomethyl)phenyl]-7-oxo-6-(sulfooxy)-1,6-diazabicyclo[3.2.1]octane-2-carboxamide]	0.78 µM	3.12 µM	6.25 µM	72	6.25	6.25	12.5	20	–	–	–	–
CN(C)c1cc(NC(=O)[C@@H]2CC[C@@H]3CN2C(=O)N3OS(=O)(=O)O)ccn1 [Example 8, (2S,5R)—N-[2-(Dimethylamino)pyridin-4-yl]-7-oxo-6-(sulfooxy)-1,6-diazabicyclo[3.2.1]octane-2-carboxamide]	12.5 µM	100 µM	> 100 µM	1.6	25	25	50	1.6	16	16	–	–
COc1cc(NC(=O)[C@@H]2CC[C@@H]3CN2C(=O)N3OS(=O)(=O)O)ccn1 [Example 7, (2S,5R)—N-(2-Methoxypyridin-4-yl)-7-oxo-6-(sulfooxy)-1,6-diazabicyclo[3.2.1]octane-2-carboxamide]	50 µM	100 µM	> 100 µM	8	25	50	> 100	1.1	8	11	–	–
O=C(N[C@H]1CCCNCC1)[C@@H]1CC[C@@H]2CN1C(=O)N2OS(=O)(=O)O [Example 2, (2S,5R)—N-[(4S)-Azepan-4-yl]-7-oxo-6-(sulfooxy)-1,6-diazabicyclo[3.2.1]-octane-2-carboxamide]	3.12 µM	6.25 µM	6.25 µM	245	6.25	12.5	25	–	245	–	69	–
O=C(N[C@@H]1CCNC1)[C@@H]1CC[C@@H]2CN1C(=O)N2OS(=O)(=O)O [Example 4, (2S,5R)-7-Oxo-N-[(3R)-pyrrolidin-3-yl]-6-(sulfooxy)-1,6-diazabicyclo[3.2.1]-octane-2-carboxamide]	100/100/>100 μM	100/100/>100 μM	100/100/>100 μM	–	50	100	100	29000	–	–	–	4400

Reference: patent publication US8487093B2, “β-lactamase inhibitors” (Merck Sharp & Dohme Corp., priority 2008, dated 2013)
